Experimental data: patent US12692249B2, “WDR5 inhibitors and modulators” (Vanderbilt University, priority 2019, dated 2026)
Like-named read-outs stand apart in the source and are kept apart here.

Legend:
[1] = tested on: MV4:11 human cancer cell lines; test: Cellular viability / anti-proliferative assay, CellTiter-Glo, 5 day protocol; format: cell-based; conditions: Homo sapiens, MV4-11, 120 h, read-out: GI50 on cellular proliferation of MV4:11 human cancer cell lines
In short: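 MV-4-11 cells in IMDM with 10% FBS, 200 cells/well, exposed 5 days to 22 two-fold dilutions from 30 μM, final DMSO 0.3%. Viability read by CellTiter-Glo luminescence; GI50 from sigmoidal dose-response fit, mean of at least two replicates.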

WDR5 = WDR5 (Homo sapiens, UniProt P61964); test: TR-FRET competition binding assay, displacement of 10mer-Thr-FAM MLL peptide probe from His-tagged WDR5; conditions: WDR5-His tag (residues 24-334) 2 nM; 10mer-Thr-FAM 150 nM; 60 min, room temperature; read-out: Ki for Inhibition of WDR5 by TR-FRET assay
[2] = MV4:11 cells, 5 day incubation, CellTiter-Glo, mean of at least two replicates

Compound | GI50 [1, 2] [nM] | Ki (WDR5) [nM] | GI50 [1] [nM]
Cc1cc(N2CCN(C)C(=O)C2)c2cncc(N3CCc4c(cc(Cn5ccnc5)cc4-c4cn(C)nc4C(F)(F)F)C3=O)c2c1 [Example 112, 7-((1H-Imidazol-1-yl)methyl)-6′-methyl-5-(1-methyl-3-(trifluoromethyl)-1H-pyrazol-4-yl)-8′-(4-methyl-3-oxopiperazin-1-yl)-3,4-dihydro-1H-[2,4′-biisoquinolin]-1-one] | 23 | 0.037 | 
COc1cnc2c(c1)C(N1CCc3c(cc(Cn4ccnc4C)cc3-c3cn(C)nc3C(F)(F)F)C1=O)CCC2 (centres unmarked) [Example 65, 2-(3-Methoxy-5,6,7,8-tetrahydroquinolin-5-yl)-7-((2-methyl-1H-imidazol-1-yl)methyl)-5-(1-methyl-3-(trifluoromethyl)-1H-pyrazol-4-yl)-3,4-dihydroisoquinolin-1(2H)-one] | < 20 | < 0.02 | 
COc1ccc2nc(C)cc(N3CCc4c(cc(Cn5ccnc5C)cc4-c4cn(C)nc4C(F)(F)F)C3=O)c2c1 [Example 8, 2-(6-Methoxy-2-methylquinolin-4-yl)-7-((2-methyl-1H-imidazol-1-yl)methyl)-5-(1-methyl-3-(trifluoromethyl)-1H-pyrazol-4-yl)-3,4-dihydroisoquinolin-1(2H)-one] | < 20 | 0.026 | 
CNC(=O)c1cc(OC)cc2c(N3CCc4c(cc(Cn5ccnc5)cc4-c4cn(C)nc4C(F)(F)F)C3=O)cc(C)nc12 [Example 183, 4-(7-((1H-Imidazol-1-yl)methyl)-5-(1-methyl-3-(trifluoromethyl)-1H-pyrazol-4-yl)-1-oxo-3,4-dihydroisoquinolin-2(1H)-yl)-6-methoxy-N,2-dimethylquinoline-8-carboxamide] | < 20 | < 0.02 | 
COc1cc(CN2CCCCC2)c2nccc(N3CCc4c(cc(Cn5ccnc5)cc4-c4cn(C)nc4C(F)(F)F)C3=O)c2c1 [Example 128] |  | 0.038 | < 20
COc1cc(COC2CCC2)c2nccc(N3CCc4c(cc(Cn5ccnc5)cc4-c4cn(C)nc4C(F)(F)F)C3=O)c2c1 [Example 159, 7-((1H-Imidazol-1-yl)methyl)-2-(8-(cyclobutoxymethyl)-6-methoxyquinolin-4-yl)-5-(1-methyl-3-(trifluoromethyl)-1H-pyrazol-4-yl)-3,4-dihydroisoquinolin-1(2H)-one] | 159 | 0.027 | 
CCc1cc(CCC(=O)N2CCOCC2)c2nc(C)cc(N3CCc4c(cc(Cn5ccnc5)cc4-c4cn(C)nc4C(F)(F)F)C3=O)c2c1 [Example 153, 7-((1H-Imidazol-1-yl)methyl)-2-(6-ethyl-2-methyl-8-(3-morpholino-3-oxopropyl)quinolin-4-yl)-5-(1b-methyl-3-(trifluoromethyl)-1H-pyrazol-4-yl)-3,4-dihydroisoquinolin-1(2H)-one] | 47 | 0.022 | 
COc1cnc2cccc(N3CCc4c(cc(Cn5ccnc5C)cc4-c4cn(C)nc4C(F)(F)F)C3=O)c2c1 [Example 3, 2-(3-Methoxyquinolin-5-yl)-7-((2-methyl-1H-imidazol-1-yl)methyl)-5-(1-methyl-3-(trifluoromethyl)-1H-pyrazol-4-yl)-3,4-dihydroisoquinolin-1(2H)-one] | 20 | < 0.02 | 
Cc1cc(OCCN(C)C)c2cncc(N3CCc4c(cc(Cn5ccnc5)cc4-c4cn(C)nc4C(F)(F)F)C3=O)c2c1 [Example 106, 7-((1H-Imidazol-1-yl)methyl)-8′-(2-(dimethylamino)ethoxy)-6′-methyl-5-(1-methyl-3-(trifluoromethyl)-1H-pyrazol-4-yl)-3,4-dihydro-1H-[2,4′-biisoquinolin]-1-one] | < 20 | 0.045 | 
COc1cc(OC)c2nc(C)cc(N3CCc4c(cc(Cn5ccnc5)cc4-c4cn(C)nc4C(F)(F)F)C3=O)c2c1 [Example 18, 7-((1H-Imidazol-1-yl)methyl)-2-(6,8-dimethoxy-2-methylquinolin-4-yl)-5-(1-methyl-3-(trifluoromethyl)-1H-pyrazol-4-yl)-3,4-dihydroisoquinolin-1(2H)-one] | < 20 | < 0.02 | 
COc1cc2c(N3CCc4c(cc(Cn5ccnc5C)cc4-c4cn(C)nc4C(F)(F)F)C3=O)ccnc2cc1C [Example 6, 2-(6-Methoxy-7-methylquinolin-4-yl)-7-((2-methyl-1H-imidazol-1-yl)methyl)-5-(1-methyl-3-(trifluoromethyl)-1H-pyrazol-4-yl)-3,4-dihydroisoquinolin-1(2H)-one] | 32 | 0.024 | 
COc1ccc2nccc(N3CCc4c(cc(Cn5ccnc5C)cc4-c4cn(C)nc4C(F)(F)F)C3=O)c2c1 [Example 4, 2-(6-Methoxyquinolin-4-yl)-7-((2-methyl-1H-imidazol-1-yl)methyl)-5-(1-methyl-3-(trifluoromethyl)-1H-pyrazol-4-yl)-3,4-dihydroisoquinolin-1(2H)-one] | < 20 | < 0.02 | 

The next lines start with results.

GI50 [1, 2] [nM] | Ki (WDR5) [nM] | Compound | GI50 [1] [nM]
21 | 0.033 | CCc1cnc2cccc(N3CCc4c(cc(Cn5ccnc5)cc4-c4cn(C)nc4C(F)(F)F)C3=O)c2c1 [Example 90, 7-((1H-Imidazol-1-yl)methyl)-2-(3-ethylquinolin-5-yl)-5-(1-methyl-3-(trifluoromethyl)-1H-pyrazol-4-yl)-3,4-dihydroisoquinolin-1(2H)-one] | 
30 | < 0.02 | CCc1cc(CN(C)C(C)=O)c2nccc(N3CCc4c(cc(Cn5ccnc5)cc4-c4cn(C)nc4C(F)(F)F)C3=O)c2c1 [Example 238] | 
40 | 0.042 | Cc1cc2c(N3CCc4c(cc(Cn5ccnc5)cc4-c4cn(C)nc4C(F)(F)F)C3=O)cccc2nc1C [Example 108, 7-((1H-imidazol-1-yl)methy)-2-(2,3-dimethylquinolin-5-yl)-5-(1-methyl-3-(trifluoromethyl)-1H-pyrazol-4-yl)-3,4-dihydroisoquinolin-1(2H)-one] | 
< 20 | < 0.02 | CCc1cc2c(N3CCc4c(cc(Cn5ccnc5)cc4-c4cn(C)nc4C(F)(F)F)C3=O)ccnc2c(OC)n1 [Example 207, 7-((1H-Imidazol-1-yl)methyl)-2-(6-ethyl-8-methoxy-1,7-naphthyridin-4-yl)-5-(1-methyl-3-(trifluoromethyl)-1H-pyrazol-4-yl)-3,4-dihydroisoquinolin-1(2H)-one] | 
< 20 | < 0.02 | COc1cc(N2CCOCC2)c2nccc(N3CCc4c(cc(Cn5ccnc5)cc4-c4cn(C)nc4C(F)(F)F)C3=O)c2c1 [Example 30, 7-((1H-Imidazol-1-yl)methyl)-2-(6-methoxy-8-morpholinoquinolin-4-yl)-5-(1-methyl-3-(trifluoromethyl)-1H-pyrazol-4-yl)-3,4-dihydroisoquinolin-1(2H)-one] | 
23 | < 0.02 | CCc1cc(CNC(C)=O)c2nccc(N3CCc4c(cc(Cn5ccnc5)cc4-c4cn(C)nc4C(F)(F)F)C3=O)c2c1 [Example 240, N-((4-(7-((1H-Imidazol-yl)methyl)-5-(1-methyl-3-(trifluoromethyl)-1H-pyrazol-4-yl)-1-oxo-3,4-dihydroisoquinolin-2(1H)-yl)-6-ethylquinolin-8-yl)methyl)acetamide] | 
< 20 | < 0.02 | CCc1cc(N2CCN(C)CC2)c2nccc(N3CCc4c(cc(Cn5ccnc5)cc4-c4cn(C)nc4C(F)(F)F)C3=O)c2c1 [Example 37, 7-((1H-Imidazol-1-yl)methyl)-2-(6-ethyl-8-(4-methylpiperazin-1-yl)quinolin-4-yl)-5-(1-methyl-3-(trifluoromethyl)-1H-pyrazol-4-yl)-3,4-dihydroisoquinolin-1(2H)-one] | 
